# Test results reported in ChEMBL document CHEMBL4477232, “Synthesis and evaluation of novel 1,2,3-triazole-based acetylcholinesterase inhibitors with neuroprotective activity” (Bioorg Med Chem Lett, 2016).
# Calls of active or inactive are those of the source. The rule behind the calls is not given here.
# Experiments:
# Acetylcholinesterase = Acetylcholinesterase (Electrophorus electricus, UniProt O42275); test: Inhibition of electric eel AChE preincubated for 6 mins followed by addition of acetylthiocholine iodide by Ellman's method
# Cholinesterase = Cholinesterase (Equus caballus, UniProt P81908); test: Inhibition of equine serum BuChE preincubated for 6 mins followed by addition of S-butyrylthiocholine iodide by Ellman's method
# [1] = Selectivity ratio of IC50 for equine serum BuChE to IC50 for electric eel AChE
# SH-SY5Y [2] = test: Neuroprotective activity against amyloid beta (25 to 35 residues)-induced cell damage in human SH-SY5Y cells assessed as cell viability at 10 uM preincubated for 2 hrs followed by amyloid beta (25 to 35 residues) addition measured after 24 hrs by MTT assay (reference value: 62.3 %); format: functional; conditions: for viability at 10 µM: read-out: Activity
# SH-SY5Y [3] = test: Neuroprotective activity against amyloid beta (25 to 35 residues)-induced cell damage in human SH-SY5Y cells assessed as recovery of cell viability at 10 uM preincubated for 2 hrs followed by amyloid beta (25 to 35 residues) addition measured after 24 hrs by MTT assay; format: functional
# SH-SY5Y [4] = test: Neuroprotective activity against amyloid beta (25 to 35 residues)-induced cell damage in human SH-SY5Y cells assessed as cell viability at 1 uM preincubated for 2 hrs followed by amyloid beta (25 to 35 residues) addition measured after 24 hrs by MTT assay (reference value: 62.3 %); format: functional; conditions: for viability at 1 µM: read-out: Activity
# SH-SY5Y [5] = test: Neuroprotective activity against amyloid beta (25 to 35 residues)-induced cell damage in human SH-SY5Y cells assessed as recovery of cell viability at 1 uM preincubated for 2 hrs followed by amyloid beta (25 to 35 residues) addition measured after 24 hrs by MTT assay; format: functional
# HaCaT = test: Cytotoxicity against human HaCaT assessed as cell viability upto 400 uM after 24 hrs by MTT assay relative to control; format: cell-based
# NIH3T3 = test: Cytotoxicity against mouse NIH/3T3 assessed as cell viability upto 400 uM after 24 hrs by MTT assay relative to control; format: cell-based; conditions: nih3t3, 24 h
# Chain of Cholinesterase (P81908 whole entry): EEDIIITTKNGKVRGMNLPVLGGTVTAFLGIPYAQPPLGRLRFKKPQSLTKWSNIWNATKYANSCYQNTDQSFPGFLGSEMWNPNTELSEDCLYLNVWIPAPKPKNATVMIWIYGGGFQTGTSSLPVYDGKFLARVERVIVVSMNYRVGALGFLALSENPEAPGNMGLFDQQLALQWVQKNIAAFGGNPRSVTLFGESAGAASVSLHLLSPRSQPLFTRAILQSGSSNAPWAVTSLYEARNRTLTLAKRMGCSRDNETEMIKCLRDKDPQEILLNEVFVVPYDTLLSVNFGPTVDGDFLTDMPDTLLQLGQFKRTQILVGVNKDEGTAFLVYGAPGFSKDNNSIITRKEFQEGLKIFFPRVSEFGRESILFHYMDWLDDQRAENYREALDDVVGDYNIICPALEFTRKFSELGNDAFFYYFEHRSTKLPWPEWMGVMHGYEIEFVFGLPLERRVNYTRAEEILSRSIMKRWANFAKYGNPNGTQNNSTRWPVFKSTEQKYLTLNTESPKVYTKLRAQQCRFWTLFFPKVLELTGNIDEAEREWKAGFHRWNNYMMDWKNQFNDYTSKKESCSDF
# Chain of Acetylcholinesterase (O42275 whole entry): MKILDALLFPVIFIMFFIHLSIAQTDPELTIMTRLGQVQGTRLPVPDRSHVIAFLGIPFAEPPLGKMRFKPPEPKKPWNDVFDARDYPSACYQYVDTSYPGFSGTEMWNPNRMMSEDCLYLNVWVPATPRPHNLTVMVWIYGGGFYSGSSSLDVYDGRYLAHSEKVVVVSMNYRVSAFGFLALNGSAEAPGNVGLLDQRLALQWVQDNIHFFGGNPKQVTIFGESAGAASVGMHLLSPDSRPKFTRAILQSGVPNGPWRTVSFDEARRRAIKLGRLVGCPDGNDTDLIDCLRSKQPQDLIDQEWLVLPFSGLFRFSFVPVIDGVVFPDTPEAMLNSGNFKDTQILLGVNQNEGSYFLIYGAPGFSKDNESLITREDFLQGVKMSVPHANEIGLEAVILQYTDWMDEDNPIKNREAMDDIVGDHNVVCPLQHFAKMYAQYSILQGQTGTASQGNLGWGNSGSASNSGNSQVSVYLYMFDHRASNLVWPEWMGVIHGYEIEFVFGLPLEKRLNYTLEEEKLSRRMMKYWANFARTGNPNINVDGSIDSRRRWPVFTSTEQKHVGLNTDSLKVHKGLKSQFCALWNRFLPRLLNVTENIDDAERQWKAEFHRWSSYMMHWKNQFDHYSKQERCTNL
Compound,IC50 (Acetylcholinesterase),IC50 (Cholinesterase),Ratio IC50 [1],further results
Cc1ccc(-c2cn(Cc3ccc(F)cc3Br)nn2)cc1C(=O)NCCN1CCOCC1,31.4 µM,70.8 µM,2.3,–
Cc1ccc(-c2cn(Cc3ccc(C(F)(F)F)cc3)nn2)cc1C(=O)NCCN1CCOCC1,27.4 µM,–,–,viability at 10 µM (SH-SY5Y [2]): 85.2%; Activity (SH-SY5Y [3]): 22.9%; Activity (SH-SY5Y [4]): inactive; Activity (SH-SY5Y [5]): inactive
COc1ccc(Br)c(Cn2cc(-c3ccc(C)c(C(=O)NCCN4CCOCC4)c3)nn2)c1,40.8 µM,50.8 µM,1.2,–
Cc1ccc(-c2cn(Cc3ccccc3F)nn2)cc1C(=O)NCCN1CCOCC1,39.3 µM,47.2 µM,2,–
COC(=O)/C=C/c1ccc(Cn2cc(-c3ccc(C)c(C(=O)NCCN4CCOCC4)c3)nn2)cc1,44.7 µM,90.9 µM,2,–
Cc1ccc(-c2cn(Cc3cccc(F)c3)nn2)cc1C(=O)NCCN1CCOCC1,30.1 µM,60.8 µM,1.2,–
Cc1ccc(-c2cn(Cc3ccc(F)cc3Cl)nn2)cc1C(=O)NCCN1CCOCC1,10.4 µM,68.9 µM,6.6,Activity (SH-SY5Y [2]): inactive; Activity (SH-SY5Y [3]): inactive
Cc1ccc(-c2cn(Cc3cccc(Cl)c3)nn2)cc1C(=O)NCCN1CCOCC1,32.6 µM,36.3 µM,1.1,–
Cc1ccc(-c2cn(Cc3ccc(Br)cc3)nn2)cc1C(=O)NCCN1CCOCC1,20.5 µM,45.6 µM,2.2,–
Cc1cc(C)cc(Cn2cc(-c3ccc(C)c(C(=O)NCCN4CCOCC4)c3)nn2)c1,64.2 µM,56.2 µM,0.9,–
Cc1ccc(-c2cn(Cc3ccc([N+](=O)[O-])cc3)nn2)cc1C(=O)NCCN1CCOCC1,20.4 µM,60.5 µM,2.9,–
Cc1ccc(-c2cn(Cc3ccccc3Br)nn2)cc1C(=O)NCCN1CCOCC1,35.2 µM,78.6 µM,2.2,–
Cc1cc(F)ccc1Cn1cc(-c2ccc(C)c(C(=O)NCCN3CCOCC3)c2)nn1,37.6 µM,61 µM,1.6,–
Cc1ccc(-c2cn(Cc3ccc(C#N)cc3)nn2)cc1C(=O)NCCN1CCOCC1,12.1 µM,92.8 µM,7.6,viability at 10 µM (SH-SY5Y [2]): 78.9%; Activity (SH-SY5Y [3]): 16.6%; Activity (SH-SY5Y [4]): inactive; Activity (SH-SY5Y [5]): inactive; Activity (HaCaT): Non-Toxic; Activity (NIH3T3): Non-Toxic
Cc1ccc(-c2cn(Cc3ccccc3C(F)(F)F)nn2)cc1C(=O)NCCN1CCOCC1,34.1 µM,45.1 µM,1.3,–
Cc1ccc(-c2cn(Cc3cccc(Br)c3)nn2)cc1C(=O)NCCN1CCOCC1,28.4 µM,40.3 µM,2,–
Cc1ccc(Cn2cc(-c3ccc(C)c(C(=O)NCCN4CCOCC4)c3)nn2)cc1,60.1 µM,83.1 µM,1.4,–
O=C(O[C@@H]1Cc2c(O)cc(O)cc2O[C@@H]1c1cc(O)c(O)c(O)c1)c1cc(O)c(O)c(O)c1 [EPIGALOCATECHIN GALLATE],–,–,–,viability at 10 µM (SH-SY5Y [2]): 95.7%; Activity (SH-SY5Y [3]): 33.4%
Cc1ccc(-c2cn(Cc3ccc(F)cc3F)nn2)cc1C(=O)NCCN1CCOCC1,24.4 µM,89.6 µM,3.7,–
Cc1ccc(-c2cn(C)nn2)cc1C(=O)NCCN1CCOCC1,45.2 µM,68.1 µM,1.5,–
Cc1ccc(-c2cn(Cc3ccc4ccccc4c3)nn2)cc1C(=O)NCCN1CCOCC1,7.23 µM,90.8 µM,12.6,viability at 10 µM (SH-SY5Y [2]): 96.5%; Activity (SH-SY5Y [3]): 34.2%; viability at 1 µM (SH-SY5Y [4]): 77.9%; Activity (SH-SY5Y [5]): 15.6%; Activity (HaCaT): Non-Toxic; Activity (NIH3T3): Non-Toxic
Cc1ccc(-c2cn(Cc3ccccc3Cl)nn2)cc1C(=O)NCCN1CCOCC1,31.3 µM,34.5 µM,1.1,–
Cc1ccc(-c2cn(Cc3ccc(OC(F)(F)F)cc3)nn2)cc1C(=O)NCCN1CCOCC1,30.2 µM,60.2 µM,2,–
Cc1ccc(-c2cn(Cc3cccc4ccccc34)nn2)cc1C(=O)NCCN1CCOCC1,46.2 µM,72.9 µM,1.58,–
Cc1ccc(-c2cn(Cc3ccc(F)c([N+](=O)[O-])c3)nn2)cc1C(=O)NCCN1CCOCC1,30.1 µM,34.8 µM,1.2,–
Cc1ccc(-c2cn(Cc3ccc(F)cc3)nn2)cc1C(=O)NCCN1CCOCC1,21.2 µM,43.7 µM,2.1,–
Cc1ccc(-c2cn(Cc3ccc(F)c(F)c3)nn2)cc1C(=O)NCCN1CCOCC1,15.4 µM,95.4 µM,6.2,viability at 10 µM (SH-SY5Y [2]): 89.4%; Activity (SH-SY5Y [3]): 27.1%; viability at 1 µM (SH-SY5Y [4]): 70.3%; Activity (SH-SY5Y [5]): 8%; Activity (HaCaT): Non-Toxic; Activity (NIH3T3): Non-Toxic
C#Cc1ccc(C)c(C(=O)NCCN2CCOCC2)c1,> 100 µM,–,–,–
COC(=O)c1ccc(Cn2cc(-c3ccc(C)c(C(=O)NCCN4CCOCC4)c3)nn2)cc1,38.4 µM,67.8 µM,1.8,–
Cc1ccc(-c2cn(Cc3ccc(S(N)(=O)=O)cc3)nn2)cc1C(=O)NCCN1CCOCC1,30.3 µM,45.5 µM,1.5,–
